Laboratory results taken from the NIST ThermoML archive (doi:10.1016/j.jct.2015.10.004).
Where “and” joins values, the source holds several entries; their conditions need not be identical. Equal entries are not always repeated. Numbers after ± are expanded uncertainties.

Assay: mn = molality of the nth substance listed, in mol/kg
Conditions: 101 kPa, Liquid; for electrical conductivity: Alternating current cell with electrodes; for mass density: Pycnometric method

NCC(=O)NCC(=O)O [glycylglycine] + O
electrical conductivity [S/m]
Conditions	293.15 K	298.15 K	303.15 K	308.15 K	313.15 K
m1 = 0.05	0.00328 ± 0.00046	0.00355 ± 0.00048	0.00385 ± 0.00052	0.00429 ± 0.00058	0.00474 ± 0.00083
m1 = 0.1	0.00543 ± 0.00048	0.00593 ± 0.00053	0.00652 ± 0.00059	0.00724 ± 0.00065	0.00805 ± 0.00071
m1 = 0.15	0.00745 ± 0.00053	0.00818 ± 0.0006	0.00904 ± 0.00067	0.0101	0.0113 ± 0.00082
m1 = 0.2	0.0106 ± 0.00072	0.0115 ± 0.00079	0.0125 ± 0.00083	0.014 ± 0.00095	0.0155 ± 0.001

CC(C)C[C@H](NC(=O)CN)C(=O)O [glycyl-L-leucine] + O
electrical conductivity
Conditions	293.15 K	298.15 K	303.15 K	308.15 K	313.15 K
m1 = 0.05	0.00321 ± 0.0004 S/m	0.00345 ± 0.00044 S/m	0.00373 S/m and 0.00372 S/m	0.00406 ± 0.00053 S/m	0.00455 ± 0.00057 S/m
m1 = 0.1	0.00533 ± 0.00046 S/m	0.0058 ± 0.00052 S/m	0.00634 ± 0.00056 S/m	0.00703 ± 0.00063 S/m	0.00781 ± 0.0007 S/m
m1 = 0.15	0.0074 ± 0.00054 S/m	0.00809 ± 0.0006 S/m	0.00889 ± 0.00066 S/m	0.00987 ± 0.00073 S/m	0.011 ± 0.00081 S/m
m1 = 0.2	0.0104 ± 0.0007 S/m	0.0113 ± 0.00075 S/m	0.0124 ± 0.00084 S/m	0.0137 ± 0.00092 S/m	0.0152 ± 0.001 S/m

C[C@H](N)C(=O)N[C@@H](CCC(N)=O)C(=O)O [L-alanyl-L-glutamine] + O
electrical conductivity [S/m]
Conditions	293.15 K	298.15 K	303.15 K	308.15 K	313.15 K
m1 = 0.05	0.0034 ± 0.0004	0.00364 ± 0.00043	0.00391 ± 0.00049	0.00427 ± 0.00054	0.00463 ± 0.0006
m1 = 0.1	0.00555 ± 0.00046	0.00599 ± 0.00066	0.00648 ± 0.0006	0.00707 ± 0.00069	0.00792 ± 0.00078
m1 = 0.15	0.00766 ± 0.00052	0.0084 ± 0.0007	0.009 ± 0.00071	0.00985 ± 0.00079	0.0112 ± 0.00088
m1 = 0.2	0.0107 ± 0.00072	0.0115 ± 0.00079	0.0124 ± 0.00086	0.0138 ± 0.00093	0.0153 ± 0.001

O=S(=O)([O-])C(F)(F)C(F)(F)C(F)(F)C(F)(F)F.[K+] [potassium perfluorobutanesulfonate] + O
Conditions	electrical conductivity, 293.15 K [S/m]	electrical conductivity, 298.15 K [S/m]	electrical conductivity, 303.15 K [S/m]	electrical conductivity, 308.15 K [S/m]	electrical conductivity, 313.15 K [S/m]	mass density, 288.15 K [kg/m3]	mass density, 293.15 K [kg/m3]	mass density, 298.15 K [kg/m3]	mass density, 303.15 K
m1 = 0.0003	0.00278 ± 0.0004	0.00312 ± 0.00045	0.00344 ± 0.0005	0.00378 ± 0.00055	0.00413 ± 0.0006	–	–	–	–
m1 = 0.00054	0.00499 ± 0.00046	0.00562 ± 0.00052	0.00619 ± 0.00058	0.00681 ± 0.00063	0.00742 ± 0.00069	–	–	–	–
m1 = 0.00087	0.00784 ± 0.00058	0.00882 ± 0.00066	0.00972 ± 0.00072	0.0107 ± 0.0008	0.0117 ± 0.00087	–	–	–	–
m1 = 0.00125	0.0111 ± 0.00075	0.0125 ± 0.00085	0.0138 ± 0.00093	0.0152 ± 0.001	0.0166 ± 0.0011	–	–	–	–
m1 = 0.00164	0.0145 ± 0.00093	0.0163 ± 0.001	0.018 ± 0.0012	0.0197 ± 0.0013	–	–	–	–	–
m1 = 0.00207	0.0181 ± 0.0011	0.0203 ± 0.0013	0.0226 ± 0.0014	0.0248 ± 0.0016	0.0271 ± 0.0017	–	–	–	–
m1 = 0.00259	0.0227 ± 0.0014	0.0253 ± 0.0016	0.0279 ± 0.0017	0.0307 ± 0.0019	0.0335 ± 0.0021	–	–	–	–
m1 = 0.00315	0.0273 ± 0.0017	0.0304 ± 0.0019	0.0336 ± 0.0021	0.0369 ± 0.0023	0.0403 ± 0.0025	–	–	–	–
m1 = 0.00374	0.0322 ± 0.002	0.0357 ± 0.0022	0.0395 ± 0.0024	0.0434 ± 0.0026	0.0474 ± 0.0029	–	–	–	–
m1 = 0.00437	0.0372 ± 0.0023	0.0415 ± 0.0025	0.0457 ± 0.0028	0.0504 ± 0.0031	0.0549 ± 0.0033	–	–	–	–
m1 = 0.00501	0.0423 ± 0.0026	0.0471 ± 0.0028	0.0521 ± 0.0032	0.0572 ± 0.0035	0.0625 ± 0.0038	–	–	–	–
m1 = 0.00571	0.0478 ± 0.0029	0.0532 ± 0.0032	0.0588 ± 0.0035	0.0646 ± 0.0039	0.0705 ± 0.0043	–	–	–	–
m1 = 0.00646	0.0537 ± 0.0032	0.0596 ± 0.0036	0.0658 ± 0.004	0.0725 ± 0.0044	0.0792 ± 0.0048	–	–	–	–
m1 = 0.00723	0.0596 ± 0.0036	0.0662 ± 0.004	0.0732 ± 0.0044	0.0805 ± 0.0048	0.0878 ± 0.0053	–	–	–	–
m1 = 0.00809	0.0661 ± 0.004	0.0734 ± 0.0044	0.081 ± 0.0049	–	0.0976 ± 0.0059	–	–	–	–
m1 = 0.00904	0.0731 ± 0.0044	0.0814 ± 0.0049	–	–	–	–	–	–	–
m1 = 0.04	–	–	–	–	–	1006.5 ± 0.5	1005.6 ± 0.5	1004.3 ± 0.5	1002.7 ± 0.5 kg/m3 and 1002.8 ± 0.5 kg/m3

NCC(=O)N[C@@H](CCC(N)=O)C(=O)O [glycyl-l-glutamine] + O
electrical conductivity
Conditions	293.15 K	298.15 K	303.15 K	308.15 K	313.15 K
m1 = 0.05	0.00342 ± 0.00042 S/m	0.00366 ± 0.00045 S/m	0.00392 ± 0.00051 S/m	0.00428 ± 0.00056 S/m	0.00464 ± 0.0006 S/m
m1 = 0.1	0.00556 ± 0.00048 S/m	0.006 ± 0.00053 S/m	0.00649 ± 0.0006 S/m	0.00708 ± 0.00063 S/m	0.00793 S/m and 0.00773 S/m
m1 = 0.15	0.00768 ± 0.00049 S/m	0.00832 ± 0.00057 S/m	0.00902 ± 0.00065 S/m	0.00999 ± 0.00068 S/m	0.0108 S/m and 0.0112 S/m
m1 = 0.2	0.0107 ± 0.00072 S/m	0.0116 ± 0.00078 S/m	0.0125 ± 0.00084 S/m	0.0139 ± 0.00092 S/m	0.0148 S/m and 0.0158 S/m

CC(C)[C@H](NC(=O)CN)C(=O)O [glycyl-L-valine] + O
electrical conductivity [S/m]
Conditions	293.15 K	298.15 K	303.15 K	308.15 K	313.15 K
m1 = 0.05	0.00323 ± 0.00039	0.00347 ± 0.00043	0.00374 ± 0.00047	0.00407 ± 0.00052	0.00456 ± 0.00058
m1 = 0.1	0.00535 ± 0.00047	0.00582 ± 0.00052	0.00636 ± 0.00056	0.00705 ± 0.00063	0.00783 ± 0.00069
m1 = 0.15	0.00742 ± 0.00054	0.00811 ± 0.00058	0.00891 ± 0.00067	0.00989 ± 0.00074	0.011 ± 0.00081
m1 = 0.2	0.0104 ± 0.00071	0.0114 ± 0.00077	0.0124 ± 0.00084	0.0137 ± 0.00093	0.0152 ± 0.001

O=S(=O)([O-])C(F)(F)C(F)(F)C(F)(F)C(F)(F)C(F)(F)C(F)(F)C(F)(F)C(F)(F)F.[K+] [potassium perfluorooctanesulfonate] + O
Conditions	electrical conductivity, 293.15 K [S/m]	electrical conductivity, 298.15 K [S/m]	electrical conductivity, 303.15 K [S/m]	electrical conductivity, 308.15 K [S/m]	electrical conductivity, 313.15 K [S/m]	mass density, 288.15 K [kg/m3]	mass density, 293.15 K [kg/m3]	mass density, 298.15 K	mass density, 303.15 K
m1 = 0.0003	–	0.00301 ± 0.00041	0.00325 ± 0.0004	0.00359 ± 0.00046	0.00392 ± 0.00051	–	–	–	–
m1 = 0.00033	0.00284 ± 0.00033	0.00326 ± 0.00042	0.00353 ± 0.0004	0.0039 ± 0.00046	0.00427 ± 0.0005	–	–	–	–
m1 = 0.00036	0.00306 ± 0.00038	0.00352 ± 0.00041	0.00381 ± 0.00045	0.0042 ± 0.0005	0.0046 ± 0.00055	–	–	–	–
m1 = 0.00039	0.00326 ± 0.00036	0.00376 ± 0.00041	0.00407 ± 0.00045	0.00449 ± 0.00049	0.00492 ± 0.00054	–	–	–	–
m1 = 0.00041	0.00347 ± 0.00038	0.00399 ± 0.00044	0.00432 ± 0.00048	0.00478 ± 0.00053	0.00522 ± 0.00057	–	–	–	–
m1 = 0.00044	0.00366 ± 0.00038	0.00421 ± 0.00044	0.00456 ± 0.00048	0.00504 ± 0.00054	0.0055 ± 0.00058	–	–	–	–
m1 = 0.00046	0.00384 ± 0.00037	0.00444 ± 0.00043	0.00481 ± 0.00047	0.00531 ± 0.00052	0.0058 ± 0.00056	–	–	–	–
m1 = 0.00049	0.00404 ± 0.00041	0.00466 ± 0.00047	0.00506 ± 0.00051	0.0056 ± 0.00058	0.0061 ± 0.00061	–	–	–	–
m1 = 0.0005	–	–	–	–	–	999.3 ± 0.5	998.3 ± 0.5	997.1 ± 0.5 kg/m3 and 997.2 ± 0.5 kg/m3	995.7 ± 0.5 kg/m3 and 995.8 ± 0.5 kg/m3
m1 = 0.00052	0.00427 ± 0.0004	0.00492 ± 0.00046	0.00534 ± 0.0005	0.00592 ± 0.00056	0.00644 ± 0.0006	–	–	–	–
m1 = 0.00054	0.00447 ± 0.00041	0.00516 ± 0.00047	0.00559 ± 0.00051	0.00621 ± 0.00057	0.00673 ± 0.00061	–	–	–	–
m1 = 0.00057	0.00468 ± 0.00044	0.00541 ± 0.00051	0.00586 ± 0.00055	0.0065 ± 0.00061	0.00706 ± 0.00066	–	–	–	–
m1 = 0.0006	0.0049 ± 0.00041	0.00564 ± 0.00048	0.00612 ± 0.00052	0.00679 ± 0.00057	0.00737 ± 0.00062	–	–	–	–
m1 = 0.00062	0.0051 ± 0.00043	0.00589 ± 0.00049	0.00638 ± 0.00053	0.00709 ± 0.00059	0.00769 ± 0.00064	–	–	–	–
m1 = 0.00066	0.00534 ± 0.00045	0.00616 ± 0.00052	0.00667 ± 0.00055	0.00742 ± 0.00063	0.00805 ± 0.00068	–	–	–	–
m1 = 0.00069	0.00559 ± 0.00044	0.00643 ± 0.00051	0.00697 ± 0.00056	0.00775 ± 0.00062	0.00843 ± 0.00067	–	–	–	–
m1 = 0.00071	0.0058 ± 0.00051	0.00669 ± 0.00054	0.00724 ± 0.00059	0.00806 ± 0.00066	0.00875 ± 0.00072	–	–	–	–
m1 = 0.00075	–	0.00698 ± 0.00051	0.00756 ± 0.00061	0.00841 ± 0.00059	0.00914 ± 0.00067	–	–	–	–
m1 = 0.00078	–	0.00721 ± 0.00053	0.00782 ± 0.00061	0.00871 ± 0.00063	–	–	–	–	–
